# Source: patent US10485769B2, “Cholesteryl ester transfer protein (CETP) inhibition in the treatment of cancer” (KING ABDULLAH UNIVERSITY OF SCIENCE AND TECHNOLOGY, priority 2015, dated 2019)
# What was measured:
# MCF-7 CETP siRNA cells = test: MMP, caspase-3/7 activity and apoptosis in CETP knockdown MCF-7 cells; type: cell-based, human; conditions: 25 μM tamoxifen, 24 h, CETP knockout cells
# Description: FIG. 10: The effect of CETP mRNA silencing on MMP (A), Capase-3/7 activity (B) and apoptosis in MCF-7 (C) and BJ (D) untransfected, cntl siRNA and CETP knockout cells after treatment with 10 μM PL or AP. Values represent the means±SD of three independent experiments.
# FIG. 12: The effect of CETP mRNA knockout on Capase-3/7 activity (A) and apoptosis (B) in MCF-7 cntl siRNA and CETP knockout cells after treatment with 25 μM tamoxifen for 24 h. Values represent the means±SD of three independent experiments.
# Since, as shown above, CETP is required for optimal growth of MCF-7 cells, we further hypothesized that CETP may help cancer cell to resist/escape apoptotic signals thus preventing cell death. Several apoptotic markers such as MOMP, phosphatidylserine exposure and caspase-3/7 activity were tested to establish a link between CETP and apoptosis.
# Next, we intended to see if CETP silencing increased sensitivity of MCF-7 cells to apoptosis.
# To test if effect of CETP knockout on apoptosis in MCF-7 is limited to AP, we treated the CETP knockout MCF-7 cells with tamoxifen (a known first line drug for breast cancer treatment). […] This observation was not limited to PL and AP as similar observations were made in CETP knockdown cells treated with tamoxifen (FIG. 12).
# MCF-7 cells = test: Mitochondrial Outer Membrane Potential (MOMP) by flow cytometry; type: cell-based, human; conditions: 10 μM PL, AP; 100 mM H2O2 positive control; versus untreated cells
# Description: FIG. 2: Mode of induction in MCF-7 cells after treatment with AP and PL was determined by measuring changes in MOMP and levels of apoptosis-associated proteins. The cells were incubated with 10 μM AP and PL for different time intervals to capture the timeline of apoptosis induction in MCF-7 cells. The changes in MOMP were measured using flow cytometry after treating MCF-7 cells with PL and AP for 1, 2 and 4 h (A). The alteration in expression of several apoptosis-associated proteins were determined using western blotting after incubating MCF-7 cells for 1, 2, 4, 6 h with PL (C, E) and AP (D. F).
# The changes in Mitochondrial Outer Membrane Potential (MOMP) and proteins involved in the apoptotic cascade were assessed (FIG. 2).
Compound,caspase-3/7 activity (MCF-7 CETP siRNA cells),"MOMP, fluorescence in the FL-2 channel (MCF-7 cells)"
CC/C(=C(\c1ccccc1)c1ccc(OCCN(C)C)cc1)c1ccccc1 [tamoxifen],significant increase,
OO [H2O2],,lower fluorescent values
